The values below come from BindingDB's records for doi:10.1021/jm00159a020 (1986).

A short description of the assay: Potency against rat brain adenosine A1 receptor at 10 uM.

With `CCCCN(C)C(=O)[C@H]1OC(n2cnc3c(NC(CC)CC)ncnc32)[C@H](O)[C@@H]1O` (stereo partly specified), the % displacement at 10 µM turned out to be 10%.
